Test results: patent US20180207164A1, “COMBINATION THERAPIES FOR TREATING CANCERS” (GILEAD SCIENCES, INC., priority 2015, published 2018)

Experiments:
[1] = tested on: primary chronic lymphocytic leukemia (CLL) cells; experiment: Apoptosis induction in primary CLL cells with αIgM/αIgG/αCD40 stimulation, without HS-5 co-culture (Annexin V/Live-Dead flow cytometry); assay type: cell-based, human; settings: for Maximal % Apoptosis: HS-5 (no co-culture), 66-72 hr post-compound addition, duplicate wells; for apoptosis observed in all CLL samples tested: at 30 nM; for average maximal proportion of apoptotic cells: primary αIgM/αIgG/αCD40 stimulated CLL cells
Procedure: (§1) The HS-5 human stromal cell line was obtained from ATCC (American Tissue Type Collection). Cells were maintained in lymphocyte growth medium (LGM): RPMI-1640 supplemented with 10% FBS, 1% penicillin-streptomycin, 10 mM HEPES, 1 mM sodium pyruvate, 55 μM β-mercaptoethanol, and 2 mM GlutaMax. With informed consent, whole blood was obtained from CLL subjects.
(§2) Peripheral blood mononuclear cells (PBMCs) were prepared from human whole blood obtained from CLL patients by Ficoll-separation in CPT tubes according to manufacturer's directions (Becton Dickinson). Isolated PBMCs were cryopreserved in freezing medium (50% IMDM, 40% FBS, and 10% DMSO) and held in the gas phase of liquid nitrogen until use. One day prior to plating of primary CLL cells, wells of a U-bottom 96-well plate were coated with 3.0×10^4 HS-5 cells and allowed to adhere overnight in a humidified 37° C. incubator supplemented with 5% CO2. The % CD5+/CD19^+ cells isolated were quantified via FACS staining.
(§3) Frozen primary CLL PBMCs were thawed, washed once in LGM, and rested for 3-5 hours in LGM at 37° C. prior to plating. Cells were then centrifuged at room temperature for 10 minutes and resuspended at 1.0-2.5×10^5 cells/mL in LGM for plating. Assay wells were set up in U-bottom 96-well tissue culture plates in the absence or presence of HS-5 co-culture. Compounds were diluted as described below. Assay plates were incubated for 1 hour prior to stimulation with αIgM/αIgG (7.8 μg/well) and αCD40 (4 μg/well). Positive and negative controls were set up. Cells were incubated for 66-72 hours in a 37° C. CO2 incubator and assayed for apoptosis.
(§4) Compounds were diluted from 10 mM DMSO stock solutions. Compound combinations were prepared by transferring 2 μl each of the appropriate working compound solutions or vehicle to wells of a 96-well polypropylene plate. A daughter plate was made by 100× dilution into media. The final assay plate was made by 10× dilution into the final assay plate described above. The final DMSO concentration was 0.1%.
(§5) Cells were transferred to a deep well (2 mL) assay block and rinsed with 1 mL cation free PBS (PBS^−/−). Cells were resuspended in Invitrogen's aqua Live/Dead reagent according to manufacturer's instructions and incubated 30 minutes on ice. Aqua Live/Dead was quenched with an equal volume of PBS^+/+ and 4% FBS (FACS buffer). Cells were centrifuged and labeled with αCD5-PE, αCD19-BV421 and AnnexinV-APC in a total volume of 80 μL and incubated 30 minutes on ice. After labeling, cells were rinsed twice in FACS buffer and then fixed with BD Fixation buffer for 30 minutes on ice. Cells were rinsed twice with FACS buffer and analyzed.
(§6) The percentage of CD5^+/CD19^+ cells was quantified in the PBMCs to provide an assessment of the malignant cell population in each sample. To evaluate apoptosis, flow cytometric sampling of 50 μL cell suspensions (5,000-25,000 total events) were collected on a BD FACS Canto II instrument using a high throughput screen (HTS) autosampler. The CD5^+CD19^+ population was gated, and data were collected for the Annexin V^−/Live-Dead^−, AnnexinV^+/Live-Dead^−, AnnexinV^+/Live-Dead^+, and Annexin V^−/Live-Dead^+ CLL populations.
(§7) Annexin V^+/Live-Dead^− or Annexin V^−/Live-Dead^+ cells were gated and percentages of positive cells in each population were recorded for each well and data were extracted to a flow cytometry standard (fcs) file. Average percentages of Annexin V^+/Live-Dead^− and Annexin V^−/Live-Dead^+ were determined.
EC50 values were calculated based on log concentration of drug and percent Annexin V^+/Live-Dead^− and Annexin V^−/Live-Dead^+ cells using a 4 parameter nonlinear regression algorithm in Prism 6.01 of the GraphPad software (San Diego, Calif. USA, www.graphpad.com). Each run generated a single EC50 based on duplicate well values at each compound dilution. EC50 values and Hill slopes generated from each curve fit were reported. […]

[2] = tested on: primary CLL cells + HS-5 co-culture; experiment: Apoptosis induction in primary CLL cells with αIgM/αIgG/αCD40 stimulation in HS-5 stromal cell co-culture; assay type: cell-based, human; settings: for Maximal % Apoptosis: +HS-5, 1 μM compound, 66-72 hr post-compound addition, duplicate wells
Procedure: as §1, §2
One day prior to plating of primary CLL cells, wells of a U-bottom 96-well plate were coated with 3.0×10^4 HS-5 cells and allowed to adhere overnight in a humidified 37° C. incubator supplemented with 5% CO2.
as §3, §4, §5, §6, §7
EC50 values were calculated based on log concentration of drug and percent Annexin V^+/Live-Dead^− and Annexin V^−/Live-Dead^+ cells using a 4 parameter nonlinear regression algorithm in Prism 6.01 of the GraphPad software (San Diego, Calif. USA, www.graphpad.com). […]

CLL = settings: human, in vivo; cited from earlier work

| Structure (SMILES) | average maximal apoptosis ([1]; 1 μM compound, αIgM/αIgG/αCD40 stimulated, 5 donors) | Maximal % Apoptosis ([1]; Donor 3, 1 μM compound) | Maximal % Apoptosis ([1]; Donor 4, 1 μM compound) | Maximal % Apoptosis ([1]; Donor 5, 1 μM compound) | Maximal % Apoptosis ([1]; Donor 6, 1 μM compound) | Maximal % Apoptosis ([1]; Donor 10, 1 μM compound) | EC50 ([1]; Homo sapiens, CLL cell, primary CLL cells stimulated with αIgM/αIgG/αCD40, N=4, 66-72 h, read-out: geometric mean EC50 (±standard deviation) for induction of apoptosis) | Maximal % Apoptosis ([2]; Donor 3) | Maximal % Apoptosis ([2]; Donor 4) | apoptosis levels versus background in the presence of HS-5 co-culture ([2]; HS-5 co-culture, 5 donors tested, mean EC50 not reported) | apoptosis observed in all CLL samples tested [1] | average maximal proportion of apoptotic cells [1] | clinical efficacy in CLL (CLL) | dose-responsive effect in inducing apoptosis ([1]; primary CLL cells, single agent) |
| --- | --- | --- | --- | --- | --- | --- | --- | --- | --- | --- | --- | --- | --- | --- |
| CC#CC(=O)N1CC[C@@H](n2c(=O)n(-c3ccc(Oc4ccccc4)cc3)c3c(N)ncnc32)C1 [Compound A1, 6-amino-9-[(3R)-1-(2-butynoyl)-3-pyrrolidinyl]-7-(4-phenoxyphenyl)-7,9-dihydro-8H-purin-8-one] | 21.1% | 30.0% | 67.3% | 10.4% | 14.1% | 20.0% | 27.2 ± 11.3 nM | 10.1% | 45.5% | generally not increased above background in 3/5 donors tested | – | – | – | – |
| CC1(C)CCC(CN2CCN(c3ccc(C(=O)NS(=O)(=O)c4ccc(NCC5CCOCC5)c([N+](=O)[O-])c4)c(Oc4cnc5[nH]ccc5c4)c3)CC2)=C(c2ccc(Cl)cc2)C1 [Compound B1, 4-[4-[[2-(4-chlorophenyl)-4,4-dimethyl-1-cyclohexen-1-yl]methyl]-1-piperazinyl]-N-[[3-nitro-4-[[(tetrahydro-2H-pyran-4-yl)methyl]amino]phenyl]sulfonyl]-2-(1H-pyrrolo[2,3-b]pyridin-5-yloxy)-benzamide] | – | 66.1% | 87.3% | 38.3% | 31.6% | 35.8% | – | 30.8% | 80.8% | – | > 60% | 91.4% | clinical efficacy in CLL | – |
| CCC(Nc1ncnc2[nH]cnc12)c1nc2cccc(F)c2c(=O)n1-c1ccccc1 (stereo not shown) [Compound C1, 2-(1-((9H-Purin-6-yl)amino)propyl)-5-fluoro-3-phenylquinazolin-4(3H)-one] | – | 50.8% | 60.1% | 12.1% | 15.0% | 17.6% | – | 15.2% | 30.6% | – | – | 23% | – | dose-responsive effect |
| c1cn2cc(-c3ccc4cn[nH]c4c3)nc(Nc3ccc(N4CCOCC4)cc3)c2n1 [Compound D1, 6-(1H-indazol-6-yl)-N-(4-morpholinophenyl)imidazo[1,2-a]pyrazin-8-amine] | – | – | – | – | – | – | – | – | – | – | > 60% | – | clinical efficacy in CLL | – |
